US7951779B2, “Method of protecting cells against damage and pharmaceutical composition comprising leumorphin” (Postech Academy-Industry Foundation, priority 2005, dated 2011)
Where a name gives a salt, the structure may show the parent alone. Read-outs that look alike come from different tables or passages of the source.

Legend:
PC12 cells [1] = assay: MTT conversion assay of cell viability under serum deprivation; type: cell-based, rat
EGFR = EGFR tyrosine phosphorylation, immunoprecipitation and Western blot in PC12 cells; type: cell-based, rat; settings: preincubation 20 min: AG1478 1 μM, PP2 5 μM, naloxone or nor-BNI 1 μM; then leumorphin 1 μM 2 min
Procedure: Immunoprecipitation was performed as previously described (Daub et al., 1997). In brief, cells were washed with ice-cold PBS and lysed with lysis buffer (50 mM HEPES pH 7.5, 150 mM NaCl, 1% Triton X-100, 1 mM EDTA, 10% glycerol) containing protease inhibitors (0.5 mM PMSF, 1 μg/ml leupeptin and 5 μg/ml aprotinin) and phosphatase inhibitors (30 mM NaF, 1 mM Na3VO4 and 30 mM Na4O7P2). The cell lysates were incubated for 1 hr at 4° C. After centrifugation (12,000×g for 15 min), equal amounts of soluble extract were incubated for 4 hr, with 5 μg of anti-EGFR antibody and 30 μl of resin volume of immobilized protein G For gel electrophoresis, the precipitates were dissolved in Laemmli sample buffer.
FIGS. 5C and 5D, PC12 cells were stimulated with the indicated doses of leumorphin for 10 min (C) or with 1 μM of leumorphin for the indicated times (D). […] Cell lysates were subjected to Western blot analysis after immunoprecipitation with EGFR antibodies. Tyrosine-phosphorylated EGFRs were detected by immunoblotting with phosphotyrosine antibodies. The amounts of the precipitated EGFRs were monitored by reprobing the same blot with EGFR antibodies. […] In FIG. 5G, PC12 cells were preincubated with 1 μM AG1478 or 5 μM PP2 for 20 min and then stimulated with 1 μM leumorphin for 10 min. Phosphorylation of AKT and ERK was detected by Western blot analysis as in FIG. 4F. C-E,

AKT and ERK = type: cell-based, rat
PC12 cells [2] = assay: DNA ploidy analysis (FACS, sub-Go/Gl) in serum-deprived PC12 cells; type: cell-based, rat; settings: antagonist 1 μM with leumorphin 1 μM, 24 hr
Procedure: Cells were suspended in PBS containing 5 mM EDTA and fixed in 100% ethanol. RNase A (50 μg/ml) was added to the suspended cells, and the cells were incubated at room temperature for 30 min. Propidium iodide (2 μg/ml) was added before reading. DNA contents of the cells were analyzed using a FACScan flow cytometer (Becton Dickinson, Franklin Lakes, N.J.), which was also used to determine the percentage of cells in the different phases of the cell cycle.
(§1) In FIG. 6A, Fragmentation of DNA in the nucleus was detected by a fluorescent TUNEL apoptosis assay. TUNEL stainings are shown in a-c, PI stainings are shown in d-f, and the merged images are presented in g-i. […] Each bar represents a fold increase of TUNEL-positive population of cells after treatment as indicated in serum-deprived condition versus those in serum-growing condition. In FIG. 6C, in order to analyze DNA ploidy, cells were fixed with ethanol, and FACS analysis was performed as described in “Materials and Methods”. In FIG. 6D, caspase-3 activity was measured by using a specific fluorogenic substrate of caspase-3 (Ac-DEVD -AMC) as described in “Materials and Methods”.

caspase-3 = assay: Caspase-3 enzymatic activity in PC12 cell lysates; type: cell-based, rat; settings: nor-BNI 1 μM with leumorphin 1 μM, 24 hr
Procedure: PC12 cell lysates were centrifuged at 1,000×g for 10 min. Equal amount of supernatant (20 μg protein) was diluted in buffer containing 100 mM Hepes, 10% sucrose, 5 mM dithiothreitol, […], and 0.1% CHAPS (pH 7.25), and was added to each well of a 96-well plate containing 50 μM DEVD-aminomethylcoumarin (AMC). After incubation at 37° C. for 1 hr, the cleaved free AMC was detected using a fluorospectrophotometer (excitation of 355 nm, emission of 460 nm).
as §1

PC12 cells [3] = assay: Competition binding assay of 125I-labeled leumorphin in PC12 cells; design: species or system rat; settings: 25 pM 125I-labeled leumorphin, 3 hr, 4° C.
Procedure: Ligand binding analysis was performed as previously described (Bae et al., 2004). Briefly, PC12 cells were seeded at a density of 4×10^5 cells/well into a 12-well plate and cultured overnight. After incubating the cells in blocking buffer (33 mM HEPES (pH 7.5) and 0.1% BSA in RPMI 1640) for 2 hr, 25 pM of ^125I-labeled leumorphin dissolved in binding buffer (PBS containing 0.1% BSA) was added to the cells in the absence or presence of unlabeled ligands and incubated for 3 hr at 4° C. The samples were then washed five times with ice-cold binding buffer, and 500 μl of 1 N NaOH was added to each well. After 10 min at room temperature, the lysates were collected and counted using a gamma counter.
We investigated the possibility that leumorphin might have another binding site(s), in addition to the binding site for the KOR in PC12 cells. That is, an inhibition of [^125I]leumorphin binding in PC12 cells was investigated. PC12 cells were treated with various concentrations of unlabeled leumorphin, (−)-U-50488 and nor-BNI in the presence of ^125I-labeled leumorphin (25 pM) for 3 hr at 4° C. Specifically bound ^125I-labeled leumorphin was measured as described in “Materials and Methods”. For this purpose, we performed competition binding assay of ^125I-labeled leumorphin with unlabeled-agonists, leumorphin and (−)-U-50488, and an antagonist, nor-BNI.

KOR = molecular target: T1, KOR (Rattus norvegicus, UniProt P34975); type: cell-based
T1 construct: confirming that the KOR ligands we used have proper activities and that functional KOR is expressed in PC12 cells; endogenous in cells; host or cells: PC12 (rat pheochromocytoma)
T1 sequence (P34975 whole entry): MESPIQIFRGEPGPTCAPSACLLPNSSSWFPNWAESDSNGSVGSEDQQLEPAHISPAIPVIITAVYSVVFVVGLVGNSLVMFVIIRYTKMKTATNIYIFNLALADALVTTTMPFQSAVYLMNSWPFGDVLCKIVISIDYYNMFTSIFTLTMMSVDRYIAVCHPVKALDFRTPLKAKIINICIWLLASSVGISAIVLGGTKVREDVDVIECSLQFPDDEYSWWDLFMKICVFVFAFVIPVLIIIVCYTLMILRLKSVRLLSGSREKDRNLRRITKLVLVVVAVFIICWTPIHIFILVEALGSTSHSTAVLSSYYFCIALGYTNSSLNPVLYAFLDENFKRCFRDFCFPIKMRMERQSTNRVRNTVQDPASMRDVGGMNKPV

O=c1cc(N2CCOCC2)oc2c(-c3ccccc3)cccc12 [LY294002, [2-(4-morpholinyl)-8-phenyl-4H-1-benzopyran-4-one]]
effect of kinase inhibitor on leumorphin-induced enhancement of cell viability (PC12 cells [1]; inhibitor 5 μM (AG1478 1 μM) with leumorphin 1 μM, 24 hr): attenuated

COc1cccc(-c2cc(=O)c3ccccc3o2)c1N [PD98059, [2′-amino-3′-methoxyflavone]
effect of kinase inhibitor on leumorphin-induced enhancement of cell viability (PC12 cells [1]): attenuated

CC(C)(C)n1nc(-c2ccc(Cl)cc2)c2c(N)ncnc21 [PP2]
effect of kinase inhibitor on leumorphin-induced enhancement of cell viability (PC12 cells [1]): significantly inhibited
effect on leumorphin-induced tyrosine phosphorylation of EGFR (EGFR): completely blocked to the basal level
effect on leumorphin-induced phosphorylation of AKT and ERK (AKT and ERK): significantly inhibited

CS/C(N)=C(C#N)/C(C#N)=C(\N)SC [U0124]
effect of kinase inhibitor on leumorphin-induced enhancement of cell viability (PC12 cells [1]): had no effect

N#CC(=C(/N)Sc1ccccc1N)/C(C#N)=C(\N)Sc1ccccc1N [U0126]
effect of kinase inhibitor on leumorphin-induced enhancement of cell viability (PC12 cells [1]): attenuated

C=CCN1CC[C@]23c4c5ccc(O)c4O[C@H]2C(=O)CC[C@@]3(O)[C@H]1C5 [naloxone]
effect on leumorphin-induced enhancement of cell viability (PC12 cells [1]): insensitive
effect on the anti-apoptotic effect of leumorphin (sub-Go/Gl) (PC12 cells [2]): failed to block
effect on leumorphin-induced tyrosine phosphorylation of EGFR (EGFR): neither nor-BNI nor naloxone exhibited any inhibitory effect
effect on leumorphin-induced phosphorylation of AKT and ERK (AKT and ERK): Neither of the antagonists, naloxone and nor-BNI, inhibited
effect on the phosphorylation level of AKT and ERK when given alone (AKT and ERK): did not have any effects

Oc1ccc2c3c1O[C@H]1c4[nH]c5ccccc5c4C[C@@]4(O)[C@@H](C2)N(CC2CC2)CC[C@]314 [naltrindole]
effect on leumorphin-induced enhancement of cell viability (PC12 cells [1]): failed to attenuate
effect on leumorphin-induced increase in cell viability at higher concentration (PC12 cells [1]): failed to attenuate

Oc1ccc2c3c1O[C@H]1c4[nH]c5c(c4C[C@@]4(O)[C@@H](C2)N(CC2CC2)CC[C@]314)C[C@@]1(O)[C@H]2Cc3ccc(O)c4c3[C@@]1(CCN2CC1CC1)[C@H]5O4 [nor-BNI, nor-binaltorphimine dihydrochloride]
effect on the inhibitory effect of leumorphin on caspase activity (caspase-3): not blocked
effect on leumorphin-induced enhancement of cell viability (PC12 cells [1]): insensitive
effect on leumorphin-induced increase in cell viability at higher concentration (PC12 cells [1]): failed to attenuate
effect on the anti-apoptotic effect of leumorphin (sub-Go/Gl) (PC12 cells [2]): failed to block
concentration at which the inhibitory extent reached its maximum and was saturated (PC12 cells [3]): 100 nM
effect on leumorphin-induced tyrosine phosphorylation of EGFR (EGFR): neither nor-BNI nor naloxone exhibited any inhibitory effect
effect on leumorphin-induced phosphorylation of AKT and ERK (AKT and ERK): Neither of the antagonists, naloxone and nor-BNI, inhibited
effect on the phosphorylation level of AKT and ERK when given alone (AKT and ERK): did not have any effects
effect on the inhibitory effect of leumorphin on forskolin-induced increase of cAMP content (KOR): reversed

D-Phe-Cys-Tyr-D-Trp-Om-Thr-Pen-Thr-NH2 [CTOP]
effect on leumorphin-induced enhancement of cell viability (PC12 cells [1]): failed to attenuate
effect on leumorphin-induced increase in cell viability at higher concentration (PC12 cells [1]): failed to attenuate

UFP-101
effect on leumorphin-induced phosphorylation of AKT and ERK (AKT and ERK): did not have any effect

dynorphin
cell viability (MTT conversion, percentage of surviving cells) (PC12 cells [1]): did not have any significant effect on cell viability
phosphorylation of AKT and ERK (AKT and ERK): none of these effects were elicited

pertussis toxin [PTX]
effect on leumorphin-induced enhancement of cell viability (PC12 cells [1]): unaffected
effect on leumorphin-induced phosphorylation of AKT and ERK (AKT and ERK): did not have any inhibitory effects
effect on the phosphorylation level of AKT and ERK when given alone (AKT and ERK): did not have any effects
effect on the inhibitory effect of leumorphin on forskolin-induced increase of cAMP content (KOR; naloxone or nor-BNI 1 μM, PTX 100 ng/ml 20 hr, leumorphin 1 μM): reversed

rimorphin
cell viability (MTT conversion, percentage of surviving cells) (PC12 cells [1]): none of these effects were elicited
phosphorylation of AKT and ERK (AKT and ERK): none of these effects were elicited

β-endorphin (YGGFMTSEKSQTPLVTLFKNAIIKNAYKKGE; Beta-endorphin; UniProt P01189 237-267, looked up) [an agonist of the ε-type receptor]
phosphorylation of AKT and ERK (AKT and ERK): neither AKT nor ERK was phosphorylated

β-neoendorphin (YGGFLRKYP; Beta-neoendorphin; UniProt P01213 175-183, looked up) [prodynorphin gene product, endogenous KOR ligand]
cell viability (MTT conversion, percentage of surviving cells) (PC12 cells [1]): none of these effects were elicited
phosphorylation of AKT and ERK (AKT and ERK): none of these effects were elicited
